#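 Compound exposure: 48 hours, 5 concentrations, 96-well plates. Here, GI50 denotes the concentration required for 50% inhibition of growth.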 Activity calls are given as the source filed them. Rule as the data show it: active = GI50 up to about 1.1 µM and inactive = higher.
# Experiments:
# Experiment in all cases: growth of human tumour cells (NCI), 48 h
# [1] = system: EKVX
# [2] = system: A498
# [3] = system: SW-620
# [4] = system: SNB-19
# [5] = system: LOX IMVI
# [6] = system: OVCAR-8
# [7] = system: OVCAR-5
# [8] = system: DU-145
# [9] = system: HCT-116
# [10] = system: U-251
# [11] = system: A549
# [12] = system: MDA-MB-231
# [13] = system: SNB-75
# [14] = system: Malme-3M
# [15] = system: TK-10
# [16] = system: UO-31
# [17] = system: HCT-15
# [18] = system: CCRF-CEM
# [19] = system: T47D
# [20] = system: NCI-H226
SMILES,GI50 [1],GI50 [2],GI50 [3],GI50 [4],GI50 [5],GI50 [6],GI50 [7],GI50 [8],GI50 [9],GI50 [10],GI50 [11],GI50 [12],GI50 [13],GI50 [14],GI50 [15],GI50 [16],GI50 [17] [µM],GI50 [18],GI50 [19],GI50 [20]
CC(C)C1=C(O)C(=O)C2=C(C1=O)C(O)CC1C(C)(C)CCCC21C (centres undefined),6.56 µM (inactive),14.3 µM (inactive),3.52 µM (inactive),5.38 µM (inactive),25.1 µM (inactive),5.36 µM (inactive),20.4 µM (inactive),8.3 µM (inactive),4.26 µM (inactive),4.8 µM (inactive),4.56 µM (inactive),2.84 µM (inactive),30.2 µM (inactive),3.87 µM (inactive),14.5 µM (inactive),5.09 µM (inactive),3.71,6.71 µM (inactive),–,–
COc1cc([C@@H]2c3cc4c(cc3[C@H](OC3OC5COC(C(C)C)OC5C(O)C3O)C3COC(=O)[C@@H]32)OCO4)cc(OC)c1O (some centres undefined),17.6 µM (inactive),10.7 µM (inactive),6.53 µM (inactive),14.6 µM (inactive),12.2 µM (inactive),9.31 µM (inactive),12.4 µM (inactive),–,3.85 µM (inactive),2.53 µM (inactive),8.67 µM (inactive),14.1 µM (inactive),–,16.6 µM (inactive),23.5 µM (inactive),10.2 µM (inactive),10.3,6.03 µM (inactive),26.6 µM (inactive),5.26 µM (inactive)
CC[N+]1(C)CCC(O)(/C=C/c2ccc(Cl)c(Cl)c2)C(C(=O)/C=C/c2ccc(Cl)c(Cl)c2)C1 (centres undefined),11.1 µM (inactive),2.52 µM (inactive),1.91 µM (inactive),6.11 µM (inactive),1.39 µM (inactive),2.55 µM (inactive),2.62 µM (inactive),2.71 µM (inactive),1.57 µM (inactive),1.77 µM (inactive),4.41 µM (inactive),–,3.78 µM (inactive),1.62 µM (inactive),2.43 µM (inactive),1.83 µM (inactive),2.17,1.38 µM (inactive),1.8 µM (inactive),4.08 µM (inactive)
O=C1CSC2=NC3=C(CSC/C3=C\c3ccc(Cl)cc3)C(c3ccc(Cl)cc3)N12 (centres undefined),27.4 µM (inactive),–,23.8 µM (inactive),37.2 µM (inactive),12.3 µM (inactive),8.43 µM (inactive),61.2 µM (inactive),28.4 µM (inactive),5.86 µM (inactive),> 10 µM (inactive),6.87 µM (inactive),21.8 µM (inactive),–,40.6 µM (inactive),32 µM (inactive),12.9 µM (inactive),15.8,14.6 µM (inactive),32.5 µM (inactive),–
Cc1cc(NC(=O)C2C3C=CC(O3)C2C(=O)O)no1 (centres undefined),> 100 µM (inactive),48 µM (inactive),1.5 µM (inactive),> 100 µM (inactive),14.3 µM (inactive),16.2 µM (inactive),> 100 µM (inactive),–,17 µM (inactive),21.3 µM (inactive),34.8 µM (inactive),–,> 100 µM (inactive),> 100 µM (inactive),> 100 µM (inactive),> 100 µM (inactive),18.5,19.1 µM (inactive),–,> 100 µM (inactive)
Cc1ccc(S(=O)(=O)N(CCN2C(=O)c3ccccc3C2=O)c2cc3c4c(c2)Oc2cc(N(CCN5C(=O)c6ccccc6C5=O)S(=O)(=O)c5ccc(C)cc5)cc5c2C4(C)c2c(cc(N(CCN4C(=O)c6ccccc6C4=O)S(=O)(=O)c4ccc(C)cc4)cc2O5)O3)cc1,> 100 µM (inactive),–,> 100 µM (inactive),> 100 µM (inactive),> 100 µM (inactive),> 100 µM (inactive),> 100 µM (inactive),> 100 µM (inactive),> 100 µM (inactive),> 100 µM (inactive),> 100 µM (inactive),4.89 µM (inactive),> 100 µM (inactive),–,> 100 µM (inactive),> 100 µM (inactive),> 100,> 100 µM (inactive),> 100 µM (inactive),> 100 µM (inactive)
CC(C)c1cc2c(O)c(c1)Cc1cc(C(C)C)cc(c1O)Cc1cc(C(C)C)cc(c1O)Cc1cc(C(C)C)cc(c1O)C2,> 100 µM (inactive),> 100 µM (inactive),> 100 µM (inactive),> 100 µM (inactive),> 100 µM (inactive),> 100 µM (inactive),> 100 µM (inactive),–,> 100 µM (inactive),> 100 µM (inactive),> 100 µM (inactive),–,> 100 µM (inactive),> 100 µM (inactive),> 100 µM (inactive),> 100 µM (inactive),> 100,> 100 µM (inactive),–,> 100 µM (inactive)
O=C(c1ccc2ccccc2c1)C1(I)S(=O)(=O)OCCOS1(=O)=O,> 100 µM (inactive),–,–,> 100 µM (inactive),–,> 100 µM (inactive),> 100 µM (inactive),> 100 µM (inactive),> 100 µM (inactive),> 100 µM (inactive),> 100 µM (inactive),> 100 µM (inactive),–,> 100 µM (inactive),> 100 µM (inactive),> 100 µM (inactive),> 100,> 100 µM (inactive),–,–
O=c1cc2oc3ccc4ccccc4c3cc-2c(=O)[nH]1,18 µM (inactive),16.1 µM (inactive),1.87 µM (inactive),14 µM (inactive),7.71 µM (inactive),1.56 µM (inactive),17.6 µM (inactive),13.6 µM (inactive),17.1 µM (inactive),10.2 µM (inactive),21 µM (inactive),–,–,16.2 µM (inactive),–,11 µM (inactive),7.55,1.07 µM (active),–,–
Cc1c(C2CCSc3ccccc3N2)sc2ccccc12 (centres undefined),30.9 µM (inactive),–,> 100 µM (inactive),> 100 µM (inactive),> 100 µM (inactive),> 100 µM (inactive),–,> 100 µM (inactive),62.1 µM (inactive),> 100 µM (inactive),99.8 µM (inactive),> 100 µM (inactive),98.2 µM (inactive),64.3 µM (inactive),> 100 µM (inactive),52.5 µM (inactive),74.5,–,87.9 µM (inactive),> 100 µM (inactive)
COc1ccc(OCC(=O)O)c(C(=O)CCC(=O)O)c1,> 100 µM (inactive),> 100 µM (inactive),> 100 µM (inactive),> 100 µM (inactive),> 100 µM (inactive),> 100 µM (inactive),> 100 µM (inactive),–,> 100 µM (inactive),> 100 µM (inactive),> 100 µM (inactive),–,71.8 µM (inactive),> 100 µM (inactive),> 100 µM (inactive),> 100 µM (inactive),> 100,> 100 µM (inactive),–,83.8 µM (inactive)
CCC(Oc1ccc(OC)c2ccccc(=O)c12)C(=O)O (centres undefined),> 100 µM (inactive),> 100 µM (inactive),> 100 µM (inactive),> 100 µM (inactive),> 100 µM (inactive),> 100 µM (inactive),> 100 µM (inactive),–,> 100 µM (inactive),> 100 µM (inactive),> 100 µM (inactive),–,> 100 µM (inactive),> 100 µM (inactive),> 100 µM (inactive),> 100 µM (inactive),> 100,> 100 µM (inactive),–,> 100 µM (inactive)

# — ChEMBL document CHEMBL1201862, “PubChem BioAssay data set” (2004)
